Experimental findings from US20150174193A1, “AGENTS FOR TREATING CYSTIC FIBROSIS” (INSERM, priority 2012, published 2015) are described below.

The test system of data set [1] is neutrophil serine proteases (HNE, Pr3 and CG). Kind of data set: Proteases activities and inhibition in CF sputum, overall comparison of treatments. In kind it is biochemical, human. The conditions noted are these: compared with pLK of higher MW (40,000-50,000 Da). As for the experimental part: (§1) Sputum processing-CF sputum was collected into 50 ml Falcon® tubes by physiotherapy and processed immediately. Sputum was diluted with 3 volumes of PBS per gram and homogenized to obtain a crude homogenate that was kept on ice. An aliquot of each homogenate was incubated for 2 h in low-binding microtubes with 400 μg/ml DNase or with 1.5 mg/ml of poly-L-Lysine (pLK) or PEGylated pLK (PEG-g-pLK) under gentle stirring at room temperature, then layered on a glass slide for cell counting by trypan blue exclusion and visual aspect under the optical microscope. Different sizes of pLK were tested (pLK, HBr of either 500-2,000 Da, 1000-5,000 Da, 4,000-15,000 Da and 40,000-50,000 Da molecular weight). PEG-g-pLK was pLK of 40,000-50,000 Da molecular weight grafted with one mPEG molecule of 5,000 Da.
Proteases activities were measured as described in (26) with the specific FRET (fluorescence resonance energy transfer) substrates of HNE, Pr3 and CG: Abz-APEEIMRRQ-YNO2, Abz-VADnVADQ-EDDnp and Abz-TPFSGQ-YNO2 respectively (λex=320 nm and λem=420 nm). The concentrations of active proteases in biological samples were determined by comparing the rates of hydrolysis of their specific substrates with those of commercial titrated proteases under the same experimental conditions. […]

Data set [2] concerns control mice. In kind it is in vivo, mouse. From the text:
The objective of the study was to identify the nature and the dose of polycations to be aerosolized safely in control mice.
In vivo assessment of polycations toxicity has been done by cytologic analysis of bronchoalveolar lavage fluids (BALFs), quantification of proinflammatory cytokines (IL6 and KC) and lung anatomopathology.
Aerosol administration of different doses of pLK was done using a Microsprayer®. Mice were killed at day 2 and day 5 and bronchoalveolar lavage fluids (BALF) were obtained with instillation of 5×0.5 mL of sterile PBS into the lungs. Lungs were perfused with 4% formaldehyde for histological studies. Cells were collected after centrifugation of BALFs, suspended in PBS, and analyzed by flow cytometry. The supernatant was used for cytokine quantification using commercially available ELISA kits.

Data set [3] deals with Beas-2B cells. Nature of the data set: In vitro cellular toxicity in Beas-2B cell cultures. In kind it is cell-based. The conditions noted are these: in vitro cultures of Beas-2B cells.
The subject of data set [4] is CF sputum. Kind of data set: CF sputum homogenate treatment: visual aspect and cell counting. Also on record: species or system human. The note with it: for morphological aspect of the sputum after treatment: CF sputum homogenate, 2 h, 400 μg/ml DNase or 1.5 mg/ml pLK. The method, then: as §1
The increased viscosity of mucus in the CF lung leads to lung obstruction and subsequent decrease in lung function. Because DNA is a major component of CF lung secretions that contributes to their viscosity, rhDNase has been used for long by CF patients as a liquefying expectorant (28). A possible other mean to fluidize lung secretions could be through the condensation of extracellular DNA by positively charged polymers. We checked this hypothesis using poly-L-lysine (pLK) and comparing the rheological properties of CF sputa before and after treatment by pLK. Then we compared the results with those obtained using DNase in the same conditions.

In data set [5] the test system is extracellular DNA. Nature of the data set: Quantification of extracellular DNA in CF sputum. Also noted: species or system human. The note with it: for amount of extracellular DNA: CF sputum after treatment, EvaGreen. As for the experimental part:
as §1
Extracellular DNA is quantified with the non-cell-permeant fluorochrome EvaGreen™ dsDNA reagent (λex=488 nm and λem=520 nm).

Data set [6] addresses T1, HNE (Homo sapiens, UniProt P08246).
T1 construct: Aliquots of sputum homogenates containing peptidases in the 10 nanomolar range; from tissue; host or cells: sputum of cystic fibrosis patients (crude homogenate in PBS)
T1 sequence (P08246 30-247 limits assumed): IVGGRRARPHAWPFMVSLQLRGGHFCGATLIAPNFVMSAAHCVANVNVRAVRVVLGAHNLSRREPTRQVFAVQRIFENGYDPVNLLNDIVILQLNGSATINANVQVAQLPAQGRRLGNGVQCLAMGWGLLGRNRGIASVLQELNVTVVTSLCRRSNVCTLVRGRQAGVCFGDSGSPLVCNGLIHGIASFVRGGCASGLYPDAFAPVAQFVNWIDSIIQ
Nature of the data set: HNE activity in whole CF sputa and its inhibition by exogenous inhibitors. Format: biochemical. The note with it: after treatment of whole CF sputum. As for the experimental part: (§2) Proteases activities were measured as described in (26) with the specific FRET (fluorescence resonance energy transfer) substrates of HNE, Pr3 and CG: Abz-APEEIMRRQ-YNO2, Abz-VADnVADQ-EDDnp and Abz-TPFSGQ-YNO2 respectively (λex=320 nm and λem=420 nm). The concentrations of active proteases in biological samples were determined by comparing the rates of hydrolysis of their specific substrates with those of commercial titrated proteases under the same experimental conditions. HNE and Pr3 were titrated as described in (27) and CG was titrated with HNE-titrated recombinant human secretory leukocyte protease inhibitor.
(§3) Aliquots of sputum homogenates containing peptidases in the 10 nanomolar range, were incubated for 30 min at room temperature with increasing amounts of inhibitors up to a (I)/(E) molar ratio of about 40. The low Mr recombinant inhibitor EPI-hNE4 or α1-proteinase inhibitor (α1-Pi) were used to inhibit HNE, while α1-antichymotrypsin (ACT) was used to inhibit CG; Pr3 was inhibited with α1-Pi after samples had been incubated with a 1000-fold molar excess of EPI-hNE4 to avoid the α1-Pi interacting with HNE (8).

Data set [7] has as its target T2, Pr3 (Homo sapiens, UniProt P24158).
T2 construct: Aliquots of sputum homogenates containing peptidases in the 10 nanomolar range; from tissue; host or cells: sputum of cystic fibrosis patients (crude homogenate in PBS)
T2 sequence (P24158 28-248 limits assumed): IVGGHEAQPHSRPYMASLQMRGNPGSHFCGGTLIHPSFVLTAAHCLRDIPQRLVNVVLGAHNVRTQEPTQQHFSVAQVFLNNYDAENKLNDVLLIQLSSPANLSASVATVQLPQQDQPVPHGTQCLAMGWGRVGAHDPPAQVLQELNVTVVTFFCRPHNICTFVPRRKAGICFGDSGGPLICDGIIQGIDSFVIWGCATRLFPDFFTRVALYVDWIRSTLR
Kind of data set: Pr3 activity in whole CF sputa and its inhibition by α1-Pi. In kind it is biochemical. The conditions noted are these: after treatment of whole CF sputum. The method, then: as §2, §3

Data set [8] concerns the target T3, CG (Homo sapiens, UniProt P08311).
T3 construct: Aliquots of sputum homogenates containing peptidases in the 10 nanomolar range; from tissue; host or cells: sputum of cystic fibrosis patients (crude homogenate in PBS)
T3 sequence (P08311 21-243 limits assumed): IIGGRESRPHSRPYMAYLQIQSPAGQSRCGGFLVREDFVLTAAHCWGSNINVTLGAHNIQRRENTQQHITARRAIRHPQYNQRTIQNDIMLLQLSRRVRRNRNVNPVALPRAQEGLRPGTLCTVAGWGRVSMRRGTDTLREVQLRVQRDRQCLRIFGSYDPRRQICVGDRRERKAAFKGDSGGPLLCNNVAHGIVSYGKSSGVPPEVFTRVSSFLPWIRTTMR
Nature of the data set: CG activity in whole CF sputa and its inhibition by ACT. In kind it is biochemical. The conditions noted are these: after treatment of whole CF sputum. As for the experimental part: as §2, §3

The test system of data set [9] is S. aureus (strain CIP 103811). Kind of data set: Antimicrobial test and scanning electron microscopy, S. aureus. Format: cell-based, Staphylococcus aureus. The conditions noted are these: for bactericidal effect (CFU): 6×10^6 bacteria, 3 h, 150 μl PBS, 110 μg DNase or 2 μg pLK. As for the experimental part: (§4) The bacterial count was determined by the measure of OD600nm.
(§5) 6×10^6 bacteria were incubated in low-binding 96-wells microplates 3 h in 150 μl PBS containing 110 μg of DNase or 2 μg of pLK (MW 40,000-50,000 Da). Aliquots of the media were then collected and serial dilutions in PBS were laid on agar plates. CFUs were numbered after incubation at 37° C. Extracellular DNA in the remaining media was quantified as previously described as a marker of bacterial wall permeability.
(§6) 6×10^6 bacteria were settled on polylysine-coated glass slides and treated (or not) with DNase or pLK (pLK of 40,000-50,000 Da). They were then fixed with 1% (v/v) glutaraldehyde and 4% (v/v) paraformaldehyde in 0.1 M PBS, pH 7.4, post-fixed in 2% (v/v) osmium tetroxide, dehydrated in a graded acetone series, dried to the critical point using carbon dioxide, and sputter coated with platinum.

In data set [10] the test system is P. aeruginosa (strain PAO1). Nature of the data set: Antimicrobial test and scanning electron microscopy, P. aeruginosa. Format: cell-based, Pseudomonas aeruginosa. The note with it: for bactericidal effect (CFU): 6×10^6 bacteria, 3 h, 150 μl PBS, 110 μg DNase or 2 μg pLK. As for the experimental part:
as §4, §5, §6

Where [11] appears, read: aerosol 2.4 mg/kg (66 μg in 50 μL, about 130 μM), Mann-Whitney test.

“Also recorded” adds a separate entry of the source.

As for poly-L-lysine [pLK 500-2,000 Da], in data set [1], the “efficiency of pLK of different sizes” value is “far less efficient”.
As to poly-L-lysine [pLK (4-15 kDa)], the “efficiency of pLK of different sizes” value in data set [1] (listed as pLK 4,000-15,000 Da) was “same results as those with higher MW”. Also, in data set [2] (setting [11]), the “BALF cellularity, treated vs control mice” value was “no significant differences”; the “cytokines quantification (IL6 and KC) in BALF, treated vs control mice” value was “no significant differences”. In addition, in data set [2] (aerosol 2.4 mg/kg, day 2, both in treated and in control groups), the “broncho-interstitial inflammation (histological study)” value is “minimal broncho-interstitial inflammation”. Besides, the “lung lesion (histological study)” value in [2] (aerosol 2.4 mg/kg, day 2 and day 5) was “no lung lesion”. Also, in data set [3], the cellular toxicity result is recorded as “can be observed” and the “in vitro toxicity threshold” value came out at 5 µM.
As for poly-L-lysine [pLK], the “morphological aspect of the sputum after treatment” value in data set [4] is “fractionation of the sputum in dense aggregates and a very fluid phase”. Moreover, the “apparent cell count in sputum homogenate” value in [4] (trypan blue exclusion, neutrophils found in aggregates) is “apparent decrease”. For the same molecule, the “amount of extracellular DNA” value in [5] is reported as “important decrease”. Further, the “DNA degradation in treated sputum” value in data set [5] (extracellular content restored after addition of dextran sulfate) was “not degraded”. In [6], the “elastase activity in whole sputum” value is given as “dramatic increase; also recorded: increase of elastase activity” and the “inhibition of elastase activity by elastase inhibitors (α1-Pi)” value is “stoichiometrically inhibited”. Besides, in [7], the “activity of PR3” value is reported as “Neither pLK nor DNase treatments significantly affected” and the “inhibition of PR3 by α1-Pi” value was “Neither pLK nor DNase treatments significantly affected”. In addition, the “CG inhibition by ACT” value in data set [8] was “significantly improved”. The “bactericidal effect (CFU)” value in data set [9] is on record as “significant bactericidal effect”. In [9] (S. aureus), the “bacterial wall permeabilization (extracellular DNA, non-cell permeant fluorophore)” value is “no wall permeabilization” and the “morphology of the bacteria (scanning electron microscopy)” value (“morphology of the bacteria” below) was “less marked”. Moreover, the “bactericidal effect (CFU)” value in data set [10] is listed as “significant bactericidal effect”. Besides, in [10] (P. aeruginosa), the “bacterial wall permeabilization (extracellular DNA, non-cell permeant fluorophore)” value is recorded as “disruption of the bacterial wall” and the “morphology of the bacteria” value is on record as “significant modification of the morphology; also recorded: spiculated surface”.

B1: DNase: DNase, most widely used mucoactive agent for CF patients; comparator (protein, UniProt P24855 23-282, looked up)
Deoxyribonuclease-1: LKIAAFNIQTFGETKMSNATLVSYIVQILSRYDIALVQEVRDSHLTAVGKLLDNLNQDAPDTYHYVVSEPLGRNSYKERYLFVYRPDQVSAVDSYYYDDGCEPCGNDTFNREPAIVRFFSRFTEVREFAIVPLHAAPGDAVAEIDALYDVYLDVQEKWGLEDVMLMGDFNAGCSYVRPSQWSSIRLWTSPTFQWLIPDSADTTATPTHCAYDRIVVAGMLLRGAVVPDSALPFNFQAAYGLSDQLAQAISDHYPVEVMLK
Consider B1, for which the “morphological aspect of the sputum after treatment” value in [4] is on record as “no morphological change”. The “amount of extracellular DNA” value in data set [5] was “important decrease”. Moreover, in data set [6], the “elastase activity in whole sputum” value is “dramatic increase; also recorded: increase of elastase activity”; the “inhibition of elastase activity by elastase inhibitors (α1-Pi)” value was “completely and stoichiometrically inhibited”. Besides, in data set [7], the “activity of PR3” value is “Neither pLK nor DNase treatments significantly affected” and the “inhibition of PR3 by α1-Pi” value is on record as “Neither pLK nor DNase treatments significantly affected”. In addition, the “CG inhibition by ACT” value in data set [8] is listed as “pLK, unlike DNase, significantly improved”. Further, the “bactericidal effect (CFU)” value in [9] is “no antimicrobial properties”. The “morphology of the bacteria” value in data set [9] (S. aureus) is given as “nor it affected the morphology”. In addition, the “bactericidal effect (CFU)” value in [10] is “no antimicrobial properties”. In addition, the “morphology of the bacteria” value in [10] (P. aeruginosa) is listed as “nor it affected the morphology”.
